Laboratory results taken from PubChem BioAssay AID1902 (Broad Institute, 2009).
The source made the active and inactive calls.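 Rule for the calls: active = EC50 no more than a set limit of log units above the highest dose; inactive = the rest.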

Molecular target: S. pyogenes SKKanGAS, kanamycin survival, BacTiterGlo, 6 h
Assay: S. pyogenes SKKanGAS kanamycin growth inhibitors – SKKanGAS strain, luminescence, dose confirmation, streptokinase promoter inhibitor project, dose response (AID 1902);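 note: lower survival reflects blocked streptokinase promoter driving kanamycin resistance gene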

SMILES | EC50
O=C(Nc1ccc(Cl)c(Cl)c1)O/N=C/c1ccncc1 | 2.38 µM
COc1ccc(-c2noc(-c3ccccc3-c3ccccc3)n2)cc1 | 8.18 µM
Cc1ccc(-c2cc(-c3ccccc3)nc(N(C)N)n2)cc1 | 6.06 µM
Cc1ccc2sc(NNC(=O)c3cc(-c4cccs4)nc4ccccc34)nc2c1C | 0.859 µM
CC(C)(C)NC(=O)C1CC2CCCCC2CN1 (stereo not drawn) | > 15 µM (inactive)
O=C(NCc1ccccn1)Nc1ccc(F)c(Cl)c1 | > 15 µM (inactive)
Oc1c(Cl)cc(Cl)c2c1NCCC2 | 5.37 µM
Cc1ccc(CN(C(=O)c2ccco2)C2CCS(=O)(=O)C2)cc1 (stereo not drawn) | > 15 µM (inactive)
CN(/N=C/c1cc(Br)cc(Br)c1O)c1cccc(C(F)(F)F)n1 | 0.544 µM
O=C(Nc1nc(N2C(=O)c3ccccc3C2=O)n(-c2ccccc2)n1)c1ccc(Cl)cc1 | 10.3 µM
C/C(=N\NC(=O)c1ccc(-c2ccccc2)cc1)C1C(=O)c2ccccc2C1=O | 1.1 µM
CCCCCCCCOC(=O)c1c(CSC(=N)N)n(C)c2cc(Br)c(OC(C)=O)cc12 | 2.83 µM
CCn1c(=O)c(C(=O)NNC(=O)c2ccccc2)c(O)c2ccccc21 | 0.839 µM
Cc1ccc(-c2nn(-c3ccccc3)cc2/C=N/n2c(-c3cccs3)n[nH]c2=S)cc1 | 1.95 µM
Cc1ccc(O)c(C2=NNC(c3ccc(Cl)cc3)C2)c1 (stereo not drawn) | 7.44 µM
COc1cccc(/C=N/n2c(N)nc3ccccc32)c1OC | 5.93 µM
O=C(O)c1cccc(N/N=C/C2=C(Cl)c3cc(Cl)ccc3SC2)c1 | 1.77 µM
O=C(Nc1nc2ccc(F)cc2s1)c1ccccn1 | 0.694 µM
COc1ccccc1-c1cc(-c2ccccc2)nc(SCC(=O)O)c1C#N | 1.97 µM
CCCCCCCCCCCCC/C=C/[C@@H](O)[C@@H](N)CO | 2.56 µM
Cc1noc(C)c1-c1nnc(-c2ccc(OC(F)(F)F)cc2)o1 | > 15 µM (inactive)
COc1ccc(C(=O)CC(=O)C(=O)Nc2ccccc2C(F)(F)F)cc1 | 2.05 µM
CCOC(=O)c1cnn(-c2nc3c(C)cccc3s2)c1C(F)(F)F | 12.5 µM
CC12CCC(CC1)C(C)(C)O2 | > 15 µM (inactive)
O=C(NC(=S)N1CCN(c2nc(-c3ccccc3)cs2)CC1)c1cncc(Br)c1 | 1.2 µM
CC(C)(C)c1cc(-c2csc(Nc3ccccc3)[n+]2Cc2ccc(C(=O)O)cc2)cc(C(C)(C)C)c1O | 2.15 µM

SMILES | EC50
Cc1c(C(=O)NNC(=O)c2ccccc2O)oc2ccc(Br)cc12 | > 15 µM (inactive)
O=C(CSc1nnc(NC(=O)C2CC(=O)N(c3ccc(F)cc3)C2)s1)NCc1ccco1 (stereo not drawn) | > 15 µM (inactive)
N#CC(C#N)=NNc1ccc([N+](=O)[O-])cc1 | 3.72 µM
COc1ccc(N=Nc2ccc(O)c3ncccc23)cc1 | < 0.06 µM
Cc1cc(SCC(=O)c2ccc(O)c(O)c2)n2nc(C)c(-c3ccccc3)c2n1 | 5.05 µM
COc1cc(OC)cc(C(=O)Nc2nc3ccccc3[nH]2)c1 | 12.8 µM
CC(C)(C)[C@@H]1CCC(=O)N(CC[C@H](Sc2ccccc2)c2ccccc2)CC1 | 3.95 µM
COc1cccc(/C=N/Nc2cc(C)nc(-c3ccccc3O)n2)c1O | 1.96 µM
c1ccc(N(c2ccccc2)c2nc(N3CCCC3)nc(-n3ccnc3)n2)cc1 | 6.12 µM
O=S(=O)(Nc1nc2ccccc2nc1Cl)c1ccc2ccccc2c1 | > 5 µM (inactive)
COc1cc(/C=N/NC(=O)c2nnn(-c3nonc3N)c2C(C)C)ccc1OCc1ccc(F)cc1 | 11.3 µM
Oc1ccc(Br)cc1/C=N/NC(=S)NCCc1ccccc1 | 1.93 µM
CC[C@H]1OC(=O)[C@H](C)[C@@H](O[C@H]2C[C@@](C)(OC)[C@@H](O)[C@H](C)O2)[C@H](C)[C@@H](O[C@@H]2O[C@H](C)C[C@H](N(C)C)[C@H]2O)[C@](C)(O)C[C@@H](C)[C@@H]2N[C@@H](COCCOC)O[C@H]([C@H]2C)[C@]1(C)O | < 0.06 µM
Cc1cc(/C=C2\SC(=S)NC2=O)c(C)n1-c1ccc(O)cc1 | 1.1 µM
COc1ccc2cc(C(=O)C3CCCN(Cc4cccc(C)n4)C3)ccc2c1 (stereo not drawn) | 1.84 µM
CCc1cc(C(=O)N2CCCC(CCC(=O)NCc3cccc(OC)c3)C2)no1 (stereo not drawn) | > 15 µM (inactive)
COCCSc1ccccc1C(=O)N1CCCC(C)C1 (stereo not drawn) | > 15 µM (inactive)
COc1ccc(NS(=O)(=O)c2cccc(NC(=O)CCC(=O)c3ccc(Cl)cc3)c2)cc1 | 7.85 µM
Cc1nc(N)sc1-c1csc(N(C)c2ccc(O)cc2)n1 | 3.57 µM
Fc1ccc(-[n+]2nc(Nc3ccccc3)sc2-c2c3ccccc3cc3ccccc23)cc1 | 5.95 µM
CC(NS(=O)(=O)/C=C/c1ccccc1)C(=O)O (stereo not drawn) | > 15 µM (inactive)
CCCn1c(C2CCCN2c2nc(-c3cccc(Br)c3)cs2)nc2cc(Cl)c(Cl)cc21 (stereo not drawn) | 3.68 µM
CCOC(=O)c1sc(NC(=O)c2cc(-c3ccccc3C)nc3ccccc23)c(C#N)c1C | 1.36 µM
Nc1c(C(=O)OCc2ccccc2)c2nc3ccccc3nc2n1Cc1cccs1 | 5.04 µM
O=C(CNc1ccc(F)cc1)N/N=C/c1c(O)ccc2ccccc12 | 1.12 µM
CCCCCCCCOC(=O)C1=C(C)Nc2nnnn2C1c1cccs1 (stereo not drawn) | 3.45 µM

SMILES | EC50
O=C(Nc1ccc(F)cc1)N1CCCCCC1 | > 15 µM (inactive)
Oc1c(CN2CCN(c3ccccc3)CC2)cc(Br)c2cccnc12 | 1.67 µM
Oc1c(Cl)cc(Cl)cc1/C=N/NC(=S)NC1CC2C=CC1C2 (stereo not drawn) | 0.177 µM
O=c1[nH]c(CSc2ncnc3sccc23)nc2ccccc12 | 2.25 µM
O=C(NNC(=S)NC(=O)c1cccs1)c1ccc(NC(=O)c2ccccc2)cc1 | 0.556 µM
Cc1cccc(CC(Cc2nc3ccccc3[nH]2)c2nc3ccccc3[nH]2)c1 (stereo not drawn) | 9.88 µM
CCOC(=O)c1ccc(NC(=O)c2sc3nc4n(c(=O)c3c2C)CCC4)cc1 | 1.99 µM
O=C1c2ccccc2C2=Nc3ccccc3SC(c3ccccc3F)C12 (stereo not drawn) | 3 µM
CC(/C=C1\SC(=O)N(CC(=O)Nc2ccc(O)cc2)C1=O)=C\c1ccccc1 | 8.02 µM
O=c1[nH]c(-c2ccccn2)nc2sc(-c3ccccc3)cc12 | 0.261 µM
Cc1nc(C)c(C(=O)N/N=C/c2cc(Br)ccc2O)s1 | 2 µM
Cc1cccc(OCC(=O)NCC(=O)N/N=C/c2cc(Br)cc(Br)c2O)c1 | 0.723 µM
COc1ccccc1N1CC(C(=O)Nc2nnc(SCC(=O)NCC3CCCO3)s2)CC1=O (stereo not drawn) | > 15 µM (inactive)
CCCc1nnc(NC(=O)c2c(O)c3cccc4c3n(c2=O)CCC4)s1 | 6.91 µM
Cc1ccccc1-c1cc(C(=O)Nc2sc(C(=O)OC(C)C)c(C)c2C#N)c2ccccc2n1 | 5.49 µM
Cc1ccc(-c2nn(-c3ccccc3)cc2/C=N/O)cc1 | 6.28 µM
Cc1cc(Cl)c2oc(C(=O)N3CCN(C(=O)c4ccco4)CC3)c(C)c2c1 | 4.45 µM
CCCCC(=O)NC(c1ccc(Cl)cc1Cl)c1ccc2cccnc2c1O (stereo not drawn) | 1.97 µM
Cc1nc(N)sc1N=Nc1ccc(F)cc1 | 2.13 µM
CCCCCCCCCCn1c2c(c(=N)c3c1CCC3)CCC2 | 9.26 µM
Cc1n[nH]c(C)c1CCOc1ccc(C(C)C)cc1 | 11.2 µM
CCC(NC(=S)NC1CCCCC1)c1ccc(C(C)C)cc1 (stereo not drawn) | 5.2 µM
O=[N+]([O-])c1ccc(/C=N/Nc2nc(N3CCCCCC3)nc(N3CCCCCC3)n2)o1 | 0.618 µM
N=C1S/C(=C\c2ccc(-c3cccc(Cl)c3)o2)C(=O)N1c1nccs1 | < 0.06 µM
Cc1nn(-c2ccccc2)c(C)c1/C=N/NC(=O)c1cc(C23CC4CC(CC(C4)C2)C3)[nH]n1 | 6.98 µM
N#Cc1nc(-c2ccccc2Cl)oc1N1CCN(C(=O)c2ccco2)CC1 | > 15 µM (inactive)
